“And” between values parts separate entries of the source, which are not always exact repeats. Equal values may be shown once. Inconclusive results and toxic doses are left out. Rule as the data show it: active = T/C of 150% or more; inactive = T/C below 125%.
System: L1210 leukemia ip in BDF1 mice, survival T/C
Experiment: NCI In Vivo Anticancer Drug Screen. Data for tumor model L1210 Leukemia (intraperitoneal) in B6D2F1 (BDF1) mice
Details: higher = longer survival
Summary of the method: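 Transplanted-tumor mice were given test agent; controls received vehicle only. Survival readings from the two groups were divided (treated over control).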

[1] = endpoint: mean survival time, dose: 25.0 mg/kg/injection, schedule: Q04DX003 (ip), vehicle: saline
[2] = endpoint: mean survival time, dose: 50.0 mg/kg/injection, schedule: Q01DX009 (ip), vehicle: saline
[3] = endpoint: mean survival time, dose: 50.0 mg/kg/injection, schedule: Q04DX003 (ip), vehicle: saline
[4] = endpoint: mean survival time, dose: 100.0 mg/kg/injection, schedule: Q04DX003 (ip), vehicle: saline with Tween-80
[5] = endpoint: mean survival time, dose: 200.0 mg/kg/injection, schedule: Q04DX003 (ip), vehicle: saline with Tween-80
[6] = endpoint: mean survival time, dose: 100.0 mg/kg/injection, schedule: Q01DX009 (ip), vehicle: Klucel (hydroxypropylcellulose) (HPC)
[7] = endpoint: mean survival time, dose: 100.0 mg/kg/injection, schedule: Q04DX003 (ip), vehicle: Klucel (hydroxypropylcellulose) (HPC)
[8] = endpoint: mean survival time, dose: 200.0 mg/kg/injection, schedule: Q01DX009 (ip), vehicle: Klucel (hydroxypropylcellulose) (HPC)
[9] = endpoint: mean survival time, dose: 200.0 mg/kg/injection, schedule: Q04DX003 (ip), vehicle: Klucel (hydroxypropylcellulose) (HPC)
[10] = endpoint: mean survival time, dose: 400.0 mg/kg/injection, schedule: Q01DX009 (ip), vehicle: Klucel (hydroxypropylcellulose) (HPC)
[11] = endpoint: mean survival time, dose: 400.0 mg/kg/injection, schedule: Q04DX003 (ip), vehicle: Klucel (hydroxypropylcellulose) (HPC)
[12] = endpoint: mean survival time, dose: 100.0 mg/kg/injection, schedule: Q04DX003 (ip), vehicle: saline
[13] = endpoint: mean survival time, dose: 200.0 mg/kg/injection, schedule: Q04DX003 (ip), vehicle: saline
[14] = endpoint: mean survival time, dose: 400.0 mg/kg/injection, schedule: Q04DX003 (ip), vehicle: saline

Measured: T/C

CCCCCCCC(=O)OCC(=O)[C@]1(O)Cc2c(O)c3c(c(O)c2[C@@H](OC2CC(N)C(O)C(C)O2)C1)C(=O)c1c(OC)cccc1C3=O (some centres undefined)
inactive: endpoint: median survival time, dose: 0.25 mg/kg/injection, schedule: Q03HX024 (ip), vehicle: water 110 % of control | endpoint: median survival time, dose: 1.0 mg/kg/injection, schedule: Q03HX024 (ip), vehicle: water 109 % of control | endpoint: median survival time, dose: 1.0 mg/kg/injection, schedule: Q04DX003 (ip), vehicle: water 115 % of control | endpoint: median survival time, dose: 2.0 mg/kg/injection, schedule: Q03HX008 (ip), vehicle: water 114 % of control | endpoint: median survival time, dose: 2.0 mg/kg/injection, schedule: Q04DX003 (ip), vehicle: water 124 % of control | endpoint: median survival time, dose: 2.5 mg/kg/injection, schedule: Q01DX001 (ip), vehicle: water 121 % of control | endpoint: median survival time, dose: 2.5 mg/kg/injection, schedule: Q08DX002 (ip), vehicle: water 101 % of control | endpoint: median survival time, dose: 4.0 mg/kg/injection, schedule: Q01DX009 (ip), vehicle: water 88 % of control | endpoint: median survival time, dose: 4.0 mg/kg/injection, schedule: Q04DX003 (ip), vehicle: water 111 % of control | endpoint: median survival time, dose: 5.0 mg/kg/injection, schedule: Q08DX002 (ip), vehicle: water 121 % of control | endpoint: median survival time, dose: 10.0 mg/kg/injection, schedule: Q01DX001 (ip), vehicle: water 121 % of control | endpoint: median survival time, dose: 10.0 mg/kg/injection, schedule: Q08DX002 (ip), vehicle: water 121 % of control | endpoint: median survival time, dose: 20.0 mg/kg/injection, schedule: Q08DX002 (ip), vehicle: water 96 % of control

Nc1ncnc2c1ncn2CCCCCl
inactive: endpoint: mean survival time, dose: 12.0 mg/kg/injection, schedule: Q04DX003 (ip), vehicle: saline 93 % of control | endpoint: mean survival time, dose: 12.5 mg/kg/injection, schedule: Q01DX009 (ip), vehicle: saline 119 % of control | endpoint: mean survival time, dose: 25.0 mg/kg/injection, schedule: Q01DX009 (ip), vehicle: saline 97 % of control | [1] 107 % of control | [2] 106 % of control | [3] 93 % of control

C=CCN(CC=C)P(N(CC=C)CC=C)N(CC=C)CC=C
inactive: endpoint: mean survival time, dose: 75.0 mg/kg/injection, schedule: Q01DX009 (ip), vehicle: saline 98 % of control | endpoint: mean survival time, dose: 150.0 mg/kg/injection, schedule: Q01DX009 (ip), vehicle: saline 96 % of control

CCCCCC(=O)NC1CCCCC1
inactive: endpoint: mean survival time, dose: 75.0 mg/kg/injection, schedule: Q01DX001 (ip), vehicle: saline 89 % of control | endpoint: mean survival time, dose: 150.0 mg/kg/injection, schedule: Q01DX001 (ip), vehicle: saline 89 % of control

O=[N+]([O-])c1ccc(Sc2cccs2)c([N+](=O)[O-])c1
inactive: endpoint: mean survival time, dose: 100.0 mg/kg/injection, schedule: Q01DX009 (ip), vehicle: saline with Tween-80 97 % of control | [4] 105 % of control | endpoint: mean survival time, dose: 200.0 mg/kg/injection, schedule: Q01DX009 (ip), vehicle: saline with Tween-80 100 % of control | [5] 93 % of control | endpoint: mean survival time, dose: 400.0 mg/kg/injection, schedule: Q01DX009 (ip), vehicle: saline with Tween-80 102 % of control | endpoint: mean survival time, dose: 400.0 mg/kg/injection, schedule: Q04DX003 (ip), vehicle: saline with Tween-80 93 % of control

O=C1/C(=C/c2c(Cl)cccc2Cl)CCC/C1=C\c1c(Cl)cccc1Cl
inactive: [6] 104 % of control | [7] 111 % of control | [8] 108 % of control | [9] 101 % of control | [10] 90 % of control | [11] 101 % of control

Cc1oc2c(O)ccc(N=Nc3cccc([N+](=O)[O-])c3)c2c1C
inactive: [8] 93 % of control | [10] 90 % of control

CC(=O)Nc1ccccc1SC(C)=O
inactive: endpoint: mean survival time, dose: 100.0 mg/kg/injection, schedule: Q04DX003 (ip), vehicle: other 88 % of control

O=[N+]([O-])c1ccc2nocc2c1
inactive: [7] 95 % of control

CCOC(=O)/C(C#N)=C/NN
inactive: endpoint: mean survival time, dose: 6.25 mg/kg/injection, schedule: Q04DX003 (ip), vehicle: saline 100 % of control | endpoint: mean survival time, dose: 12.5 mg/kg/injection, schedule: Q04DX003 (ip), vehicle: saline 96 % of control | [1] 96 % of control

C/C(=N/NC(N)=S)c1ccc(F)cc1
inactive: endpoint: mean survival time, dose: 9.38 mg/kg/injection, schedule: Q01DX009 (ip), vehicle: Klucel (hydroxypropylcellulose) (HPC) 95 % of control | endpoint: mean survival time, dose: 18.75 mg/kg/injection, schedule: Q01DX009 (ip), vehicle: Klucel (hydroxypropylcellulose) (HPC) 92 % of control

CCOC(=S)Nc1ccccc1
inactive: endpoint: mean survival time, dose: 100.0 mg/kg/injection, schedule: Q04DX002 (ip), vehicle: Klucel (hydroxypropylcellulose) (HPC) 103 % of control | endpoint: mean survival time, dose: 200.0 mg/kg/injection, schedule: Q04DX002 (ip), vehicle: Klucel (hydroxypropylcellulose) (HPC) 90 % of control | endpoint: mean survival time, dose: 400.0 mg/kg/injection, schedule: Q04DX002 (ip), vehicle: Klucel (hydroxypropylcellulose) (HPC) 107 % of control

OC/C=[CH]\[Sn]([c]1ccccc1)([c]1ccccc1)[c]1ccccc1
inactive: endpoint: mean survival time, dose: 100.0 mg/kg/injection, schedule: Q04DX002 (ip), vehicle: saline with Tween-80 95 % of control | endpoint: mean survival time, dose: 200.0 mg/kg/injection, schedule: Q04DX002 (ip), vehicle: saline with Tween-80 119 % of control | endpoint: mean survival time, dose: 400.0 mg/kg/injection, schedule: Q04DX002 (ip), vehicle: saline with Tween-80 119 % of control

Cc1ccc(NC(=S)N(C)C)cc1
inactive: [6] 104 % of control | [8] 108 % of control | [10] 108 % of control

Cc1cccc(C[As](C)(=O)O)c1
inactive: [1] 94 % of control | [3] 98 % of control | [12] 100 % of control and 103 % of control

CC(=O)CCC(C)N=Cc1ccc(N(C)C)cc1 (centres undefined)
inactive: [12] 92 % of control | [13] 91 % of control | [14] 89 % of control

CCCCNC(=O)Nc1ccc(C(=O)OCC)cc1
inactive: [6] 98 % of control | [7] 95 % of control | [8] 98 % of control | [9] 96 % of control | [10] 88 % of control | [11] 94 % of control

CC1(O)C=Cc2ccccc21 (centres undefined)
inactive: [4] 100 % of control | [5] 95 % of control

C=C(CCCCCC/C=C\CCCCCCCC)C(=O)O
inactive: endpoint: mean survival time, dose: 100.0 mg/kg/injection, schedule: Q04DX002 (sc), vehicle: olive oil, sesame oil, peanut oil 103 % of control | endpoint: mean survival time, dose: 200.0 mg/kg/injection, schedule: Q04DX002 (sc), vehicle: olive oil, sesame oil, peanut oil 103 % of control | endpoint: mean survival time, dose: 400.0 mg/kg/injection, schedule: Q04DX002 (sc), vehicle: olive oil, sesame oil, peanut oil 103 % of control

Cc1c(CC[n+]2cccc(C(N)=O)c2)[nH]c(=O)[nH]c1=O
inactive: [12] 97 % of control | [13] 101 % of control | [14] 97 % of control

CCOC(=O)NCC(CCN(CC)CC)(c1cccc2ccccc12)C(C)CC (centres undefined)
inactive: endpoint: mean survival time, dose: 100.0 mg/kg/injection, schedule: Q04DX002 (ip), vehicle: saline 93 % of control | endpoint: mean survival time, dose: 200.0 mg/kg/injection, schedule: Q04DX002 (ip), vehicle: saline 90 % of control | endpoint: mean survival time, dose: 400.0 mg/kg/injection, schedule: Q04DX002 (ip), vehicle: saline 100 % of control

CN(C)CCCNc1nc(Cl)nc(Cl)n1
inactive: [2] 96 % of control | endpoint: mean survival time, dose: 100.0 mg/kg/injection, schedule: Q01DX009 (ip), vehicle: saline 92 % of control | endpoint: mean survival time, dose: 200.0 mg/kg/injection, schedule: Q01DX009 (ip), vehicle: saline 96 % of control

Source: PubChem BioAssay AID248 (DTP/NCI, 2004)
